Experimental data from patent US12552938B2, “Deuterated fluorophores” (HOWARD HUGHES MEDICAL INSTITUTE, priority 2018, dated 2026).
“Also recorded” adds a separate entry of the source.

Legend:
[1] = relative singlet oxygen quantum yield of free dyes; assay type: physicochemical; details: free dye
[2] = spectral properties of free dyes (absorbance, fluorescence emission, ε, Φ, intrinsic brightness); assay type: physicochemical; details: free dye; 10 mM HEPES pH 7.3
[3] = photobleaching of free dyes in vitro; assay type: physicochemical
[4] = system: histone H2B-HaloTag; assay: fluorescence lifetime in live cells measured using FLIM; assay type: cell-based; details: histone H2B-HaloTag-bound
[5] = system: HaloTag protein; assay: relative singlet oxygen quantum yield of HaloTag-bound ligands; assay type: physicochemical
[6] = system: HaloTag protein; assay: fluorescence quantum yield of HaloTag-bound ligands in vitro; assay type: physicochemical; details: attached to HaloTag protein
Description: These dyes were then tested as protein conjugates in vitro and in living cells. […] Both J ligands could label HaloTag-histone H2B fusions in living cells (FIG. 24, FIG. 25).

[7] = system: histone H2B-HaloTag fusion; assay: labeling of cells expressing histone H2B-HaloTag fusion and imaging; assay type: cell-based, mammalian cell; details: 10 pM, 30 min, washed 30 minutes
[8] = system: Sox2-HaloTag fusions; assay: live-cell single-particle tracking of HaloTag ligands; assay type: cell-based; details: HaloTag conjugates; for brightness in cells (photons/s): equivalent imaging conditions

Compound	singlet oxygen (1O2) quantum yield compared to nondeuterated parent [1]	extinction coefficient (ε) compared to nondeuterated parent [2]	fluorescence quantum yield (Φ) compared to nondeuterated parent [2]	photobleaching / in vitro photostability compared to nondeuterated parent ([3]; free dye, 10 mM HEPES pH 7.3)	blue-shift of fluorescence emission during photobleaching due to dealkylation ([3]; spectra taken periodically during photobleaching) [nm]	fluorescence lifetime (τ) of HaloTag conjugate in cells compared to nondeuterated ligand [4]	1O2 generation of HaloTag-bound ligand compared to nondeuterated ligand [5]	fluorescence quantum yield of HaloTag conjugate compared to nondeuterated ligand [6]	labeling of HaloTag-histone H2B fusions in living cells [7]	photostability in cells (average track length of individual molecules) [8]	brightness in cells (photons/s) [8]
[2H]C1([2H])N(c2ccc3c(-c4ccccc4C(=O)[O-])c4ccc(=[N+]5C([2H])([2H])C([2H])([2H])C5([2H])[2H])cc-4oc3c2)C([2H])([2H])C1([2H])[2H] [Compound 16, 2-(3,6-Bis(azetidin-1-yl-d6)xanthylium-9-yl)benzoate]	significantly lower	no improvement	no improvement	no improvement	4						
[2H]C1([2H])N(c2ccc3c(c2)[Si](C)(C)C2=CC(=[N+]4C([2H])([2H])C([2H])([2H])C4([2H])[2H])C=CC2=C3c2cc(C(=O)NCCOCCOCCCCCCCl)ccc2C(=O)[O-])C([2H])([2H])C1([2H])[2H] [Compound 37, 2-(3,7-Bis(azetidin-1-yl-d6)-5,5-dimethyldibenzo[b,e]silin-10-ylium-10(51)-yl)-4-((2-(2-((6-chlorohexyl)oxy)ethoxy)ethyl)carbamoyl)benzoate]						increased	lower	substantial increase	suitable labels	more photostable	higher brightness
[2H]C1([2H])N(c2ccc3c(-c4cc(C(=O)NCCOCCOCCCCCCCl)ccc4C(=O)[O-])c4ccc(=[N+]5C([2H])([2H])C([2H])([2H])C5([2H])[2H])cc-4oc3c2)C([2H])([2H])C1([2H])[2H] [Compound 24, 2-(3,6-Bis(azetidin-1-yl-d6)xanthylium-9-yl)-4-((2-(2-((6-chlorohexyl)oxy)ethoxy)ethyl)carbamoyl)benzoate]						longer	significantly suppressed	higher	could label	no improvement	higher brightness
[2H]C1([2H])N(c2ccc3c(c2)[Si](C)(C)C2=CC(=[N+]4C([2H])([2H])C([2H])([2H])C([2H])([2H])C4([2H])[2H])C=CC2=C3c2cc(C(=O)NCCOCCOCCCCCCCl)ccc2C(=O)[O-])C([2H])([2H])C([2H])([2H])C1([2H])[2H] [Compound 38, 4-((2-(2-((6-Chlorohexyl)oxy)ethoxy)ethyl)carbamoyl)-2-(5,5-dimethyl-3,7-bis(pyrrolidin-1-yl-d8)dibenzo[b,e]silin-10-ylium-10(5H)-yl)benzoate]									improved cellular labeling	more photostable; also recorded: longest average single-molecule track length	highest photons/s
